The source of these data is ChEMBL document CHEMBL5442175, “EUbOPEN Chemogenomics Library - PDSP Secondary Binding” (2024).

Experiment [1] concerns the target Beta-3 adrenergic receptor (Homo sapiens, UniProt P13945). Nature of the experiment: PDSP Secondary Binding target: ADRB3 - Compounds are tested at 10 uM concentration, plate are incubated at room temperature in the dark for 90 minutes. Reaction are stopped by vacuum filtration onto 0.3% polyethyleneimine soaked filter mats using Filtermate harvester. Scintillation cocktail is then melted onto microwave-dried filters on a hot plate and the radio activity is counted in Microbia counter.

Experiment [2] deals with T1, 5-hydroxytryptamine receptor 3A (Homo sapiens, UniProt P46098).
T1 sequence (P46098 whole entry): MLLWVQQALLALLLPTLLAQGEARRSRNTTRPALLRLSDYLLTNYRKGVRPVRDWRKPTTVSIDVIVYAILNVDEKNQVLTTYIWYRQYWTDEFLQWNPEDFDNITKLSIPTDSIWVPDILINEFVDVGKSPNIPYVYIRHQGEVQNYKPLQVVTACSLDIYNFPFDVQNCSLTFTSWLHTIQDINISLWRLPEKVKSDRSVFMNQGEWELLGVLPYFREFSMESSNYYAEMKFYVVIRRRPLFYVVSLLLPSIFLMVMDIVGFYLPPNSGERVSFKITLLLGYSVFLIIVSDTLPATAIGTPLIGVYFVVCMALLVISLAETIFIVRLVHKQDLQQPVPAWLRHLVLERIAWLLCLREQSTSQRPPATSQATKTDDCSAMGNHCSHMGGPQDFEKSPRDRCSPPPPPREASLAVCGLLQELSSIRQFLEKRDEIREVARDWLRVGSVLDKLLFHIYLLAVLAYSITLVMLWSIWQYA
Nature of the experiment: PDSP Secondary Binding target: HTR3A - Compounds are tested at 10 uM concentration, plate are incubated at room temperature in the dark for 90 minutes. Reaction are stopped by vacuum filtration onto 0.3% polyethyleneimine soaked filter mats using Filtermate harvester. Scintillation cocktail is then melted onto microwave-dried filters on a hot plate and the radio activity is counted in Microbia counter.

For experiment [3], the target named is T2, Muscarinic acetylcholine receptor M4 (Homo sapiens, UniProt P08173).
T2 sequence (P08173 whole entry): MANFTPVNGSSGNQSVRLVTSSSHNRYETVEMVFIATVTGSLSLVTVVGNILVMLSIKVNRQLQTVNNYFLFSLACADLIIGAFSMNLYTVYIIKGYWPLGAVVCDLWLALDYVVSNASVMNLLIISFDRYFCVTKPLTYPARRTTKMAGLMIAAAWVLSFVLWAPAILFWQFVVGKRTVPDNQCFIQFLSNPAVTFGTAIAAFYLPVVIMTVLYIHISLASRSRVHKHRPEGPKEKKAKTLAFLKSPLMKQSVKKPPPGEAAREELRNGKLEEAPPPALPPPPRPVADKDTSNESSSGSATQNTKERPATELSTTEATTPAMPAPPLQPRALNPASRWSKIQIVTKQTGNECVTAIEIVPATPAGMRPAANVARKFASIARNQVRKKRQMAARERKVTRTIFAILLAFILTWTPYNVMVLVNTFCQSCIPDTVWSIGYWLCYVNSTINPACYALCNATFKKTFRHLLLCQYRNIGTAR
The experiment is described as follows: PDSP Secondary Binding target: CHRM4 - Compounds are tested at 10 uM concentration, plate are incubated at room temperature in the dark for 90 minutes. Reaction are stopped by vacuum filtration onto 0.3% polyethyleneimine soaked filter mats using Filtermate harvester. Scintillation cocktail is then melted onto microwave-dried filters on a hot plate and the radio activity is counted in Microbia counter.

For experiment [4], the target named is T3, Muscarinic acetylcholine receptor M5 (Homo sapiens, UniProt P08912).
T3 sequence (P08912 whole entry): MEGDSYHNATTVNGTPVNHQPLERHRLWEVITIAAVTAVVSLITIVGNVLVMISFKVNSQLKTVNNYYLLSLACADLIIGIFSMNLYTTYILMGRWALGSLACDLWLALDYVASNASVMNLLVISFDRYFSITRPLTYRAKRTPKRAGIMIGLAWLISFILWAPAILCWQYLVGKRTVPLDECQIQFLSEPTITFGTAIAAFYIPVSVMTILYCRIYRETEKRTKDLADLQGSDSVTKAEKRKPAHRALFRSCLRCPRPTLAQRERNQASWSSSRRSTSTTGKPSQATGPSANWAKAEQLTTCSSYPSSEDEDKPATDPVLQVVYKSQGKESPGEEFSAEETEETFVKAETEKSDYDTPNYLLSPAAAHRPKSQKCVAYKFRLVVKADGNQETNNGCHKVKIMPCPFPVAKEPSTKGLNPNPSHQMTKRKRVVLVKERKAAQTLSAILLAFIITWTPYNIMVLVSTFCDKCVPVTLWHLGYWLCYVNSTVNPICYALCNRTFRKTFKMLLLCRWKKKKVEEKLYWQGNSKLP
Nature of the experiment: PDSP Secondary Binding target: CHRM5 - Compounds are tested at 10 uM concentration, plate are incubated at room temperature in the dark for 90 minutes. Reaction are stopped by vacuum filtration onto 0.3% polyethyleneimine soaked filter mats using Filtermate harvester. Scintillation cocktail is then melted onto microwave-dried filters on a hot plate and the radio activity is counted in Microbia counter.

In experiment [5] the target is Muscarinic acetylcholine receptor M3 (Homo sapiens, UniProt P20309). The experiment is described as follows: PDSP Secondary Binding target: CHRM3 - Compounds are tested at 10 uM concentration, plate are incubated at room temperature in the dark for 90 minutes. Reaction are stopped by vacuum filtration onto 0.3% polyethyleneimine soaked filter mats using Filtermate harvester. Scintillation cocktail is then melted onto microwave-dried filters on a hot plate and the radio activity is counted in Microbia counter.

In experiment [6] the target is 5-hydroxytryptamine receptor 1E (Homo sapiens, UniProt P28566). Nature of the experiment: PDSP Secondary Binding target: HTR1E - Compounds are tested at 10 uM concentration, plate are incubated at room temperature in the dark for 90 minutes. Reaction are stopped by vacuum filtration onto 0.3% polyethyleneimine soaked filter mats using Filtermate harvester. Scintillation cocktail is then melted onto microwave-dried filters on a hot plate and the radio activity is counted in Microbia counter.

The target of another experiment is D(1A) dopamine receptor (Homo sapiens, UniProt P21728). The experiment is described as follows: PDSP Secondary Binding target: DRD1 - Compounds are tested at 10 uM concentration, plate are incubated at room temperature in the dark for 90 minutes. Reaction are stopped by vacuum filtration onto 0.3% polyethyleneimine soaked filter mats using Filtermate harvester. Scintillation cocktail is then melted onto microwave-dried filters on a hot plate and the radio activity is counted in Microbia counter.

The target of a further experiment is Histamine H3 receptor (Homo sapiens, UniProt Q9Y5N1). The experiment is described as follows: PDSP Secondary Binding target: HRH3 - Compounds are tested at 10 uM concentration, plate are incubated at room temperature in the dark for 90 minutes. Reaction are stopped by vacuum filtration onto 0.3% polyethyleneimine soaked filter mats using Filtermate harvester. Scintillation cocktail is then melted onto microwave-dried filters on a hot plate and the radio activity is counted in Microbia counter.

Counter-ions that a name gives are not always drawn.

Beta-3 adrenergic receptor, sequence (P13945 whole entry): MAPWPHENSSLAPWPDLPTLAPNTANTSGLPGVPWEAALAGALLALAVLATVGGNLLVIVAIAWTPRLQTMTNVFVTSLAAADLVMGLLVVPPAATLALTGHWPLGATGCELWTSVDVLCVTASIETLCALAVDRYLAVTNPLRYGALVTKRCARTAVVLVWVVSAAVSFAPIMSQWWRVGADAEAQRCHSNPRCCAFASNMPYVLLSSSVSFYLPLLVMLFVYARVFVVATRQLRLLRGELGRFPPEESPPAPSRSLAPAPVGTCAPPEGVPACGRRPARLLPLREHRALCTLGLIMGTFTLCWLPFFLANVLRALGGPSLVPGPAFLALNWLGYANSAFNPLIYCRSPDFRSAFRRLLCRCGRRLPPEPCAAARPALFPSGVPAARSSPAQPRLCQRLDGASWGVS
Histamine H3 receptor, sequence (Q9Y5N1 whole entry): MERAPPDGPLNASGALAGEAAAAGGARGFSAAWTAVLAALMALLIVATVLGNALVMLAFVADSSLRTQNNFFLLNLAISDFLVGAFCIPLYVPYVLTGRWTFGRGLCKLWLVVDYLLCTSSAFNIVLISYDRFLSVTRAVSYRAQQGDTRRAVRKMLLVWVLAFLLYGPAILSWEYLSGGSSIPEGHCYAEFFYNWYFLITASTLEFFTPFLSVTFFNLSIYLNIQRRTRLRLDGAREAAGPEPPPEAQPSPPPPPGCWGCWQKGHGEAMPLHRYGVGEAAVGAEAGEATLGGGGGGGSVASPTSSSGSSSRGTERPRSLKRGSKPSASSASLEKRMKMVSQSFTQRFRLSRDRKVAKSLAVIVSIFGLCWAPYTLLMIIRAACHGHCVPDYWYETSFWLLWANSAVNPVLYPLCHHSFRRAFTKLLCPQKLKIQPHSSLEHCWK
D(1A) dopamine receptor, sequence (P21728 whole entry): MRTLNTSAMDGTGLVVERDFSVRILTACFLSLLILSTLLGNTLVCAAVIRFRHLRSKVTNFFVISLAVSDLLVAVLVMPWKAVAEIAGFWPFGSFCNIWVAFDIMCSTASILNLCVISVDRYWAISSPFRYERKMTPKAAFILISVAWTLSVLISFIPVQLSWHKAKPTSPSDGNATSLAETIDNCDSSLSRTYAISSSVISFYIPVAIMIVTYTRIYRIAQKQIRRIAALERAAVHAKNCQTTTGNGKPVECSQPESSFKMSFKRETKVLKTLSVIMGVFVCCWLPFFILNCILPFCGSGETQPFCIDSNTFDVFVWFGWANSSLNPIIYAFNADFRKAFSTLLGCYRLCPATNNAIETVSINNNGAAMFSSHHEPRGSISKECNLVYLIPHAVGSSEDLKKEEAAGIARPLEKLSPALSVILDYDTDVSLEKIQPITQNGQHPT
Muscarinic acetylcholine receptor M3, sequence (P20309 whole entry): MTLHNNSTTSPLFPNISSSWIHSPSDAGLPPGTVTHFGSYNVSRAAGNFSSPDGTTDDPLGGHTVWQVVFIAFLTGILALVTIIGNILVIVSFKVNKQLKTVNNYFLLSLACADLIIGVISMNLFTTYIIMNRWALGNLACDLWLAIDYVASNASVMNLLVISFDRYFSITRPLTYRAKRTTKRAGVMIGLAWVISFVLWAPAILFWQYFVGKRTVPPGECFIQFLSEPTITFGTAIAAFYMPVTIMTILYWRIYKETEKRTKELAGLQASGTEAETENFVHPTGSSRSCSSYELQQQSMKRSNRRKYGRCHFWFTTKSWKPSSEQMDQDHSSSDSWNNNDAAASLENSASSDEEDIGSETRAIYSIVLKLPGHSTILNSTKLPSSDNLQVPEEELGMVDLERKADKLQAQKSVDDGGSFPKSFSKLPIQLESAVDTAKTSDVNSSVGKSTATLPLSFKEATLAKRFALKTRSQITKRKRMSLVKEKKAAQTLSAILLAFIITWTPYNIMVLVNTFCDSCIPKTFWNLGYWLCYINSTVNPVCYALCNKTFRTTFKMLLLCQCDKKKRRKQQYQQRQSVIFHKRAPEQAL
5-hydroxytryptamine receptor 1E, sequence (P28566 whole entry): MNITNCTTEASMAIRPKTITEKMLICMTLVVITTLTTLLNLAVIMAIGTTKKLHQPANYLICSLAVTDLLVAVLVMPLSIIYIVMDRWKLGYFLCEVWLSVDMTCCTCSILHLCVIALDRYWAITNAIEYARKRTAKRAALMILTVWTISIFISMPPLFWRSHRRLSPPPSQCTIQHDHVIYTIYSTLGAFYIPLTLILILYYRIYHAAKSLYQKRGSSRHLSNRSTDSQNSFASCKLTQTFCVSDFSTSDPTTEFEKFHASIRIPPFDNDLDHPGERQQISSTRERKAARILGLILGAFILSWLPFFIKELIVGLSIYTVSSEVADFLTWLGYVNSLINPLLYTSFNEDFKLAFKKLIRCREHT

Regarding `CCCCCNC(=N)N/N=C/c1c[nH]c2ccc(OC)cc12` [TEGASEROD MALEATE], the values for the inhibition constant (Ki) in experiment [1] and in experiment [2] were 4940 nM and 5840 nM, respectively.

Consider `CCc1ccc(OCc2ccccc2C(=O)Nc2ccc3nc(C)cc(N)c3c2)cc1`, for which the Ki (as a rule, a measure of affinity in units of concentration, obtained from inhibition or displacement) in experiment [3] was determined as 1960 nM; in experiment [1] it was 6310 nM.

Consider `Cc1cn2cc(CC(=O)N3CCC4(CC3)CN(Cc3ccc(-n5nccn5)cc3Cl)C4)nc2s1`, for which the Ki in experiment [4] worked out at 662 nM; in experiment [3], 181 nM; in experiment [5], 1530 nM.

As for `Clc1cccc(COc2cncc(N3CCNCC3)n2)c1`, the Ki in experiment [4] is 293 nM; in experiment [3], 444 nM; in experiment [5], 851 nM; in experiment [6], 1450 nM; in experiment [2], 63.7 nM.

`COC(=O)C1=C(C)NC(C)=C(C(=O)OCCCN2CCC(c3ccccc3)(c3ccccc3)CC2)[C@H]1c1cccc([N+](=O)[O-])c1` [NIGULDIPINE]: the Ki amounted to 718 nM in experiment [4], 2150 nM in experiment [5], 370 nM at D(1A) dopamine receptor and 2140 nM on Histamine H3 receptor.

Turning to `Cc1c(P(=S)(c2ccccc2)c2ccccc2)n2ccccc2[n+]1C/C=C/c1ccccc1`, the Ki in experiment [4] is 510 nM; in experiment [3], 854 nM; in experiment [5], 1140 nM; in experiment [1] it was 2050 nM.

On to `O=c1ccc2ccc(OCCCCN3CCN(c4cccc5sccc45)CC3)cc2[nH]1` [BREXPIPRAZOLE], for which the Ki amounted to 37.5 nM on D(1A) dopamine receptor, 2610 nM at Histamine H3 receptor, 478 nM in experiment [6] and 1530 nM in experiment [2].

Take `NCCc1cn(S(=O)(=O)c2c(Cl)nc3sccn23)c2ccccc12`: the Ki on Histamine H3 receptor turned out to be 1980 nM; in experiment [2], 662 nM.

On to `Cc1nn(C)c(C)c1-c1cccc2c1CC[C@H](N(C)C)C2`, for which the inhibition constant (Ki) in experiment [4] came to 308 nM; in experiment [2], 261 nM.

For `CN(C)C(=O)N[C@H]1CC[C@H](CCN2CCN(c3cccc(Cl)c3Cl)CC2)CC1` [CARIPRAZINE HYDROCHLORIDE], the Ki was found to be 1430 nM in experiment [4] and 779 nM in experiment [3].

In the case of `Cc1nc2sccn2c(=O)c1CCN1CCC(=C(c2ccc(F)cc2)c2ccc(F)cc2)CC1` [RITANSERIN], the Ki amounted to 330 nM at D(1A) dopamine receptor and 556 nM in experiment [6].

For the molecule `Cc1cc(C)cc(-c2cnc3cc(Cl)c(-c4cccc(O)c4)cc3c2OCCCN)c1`, the Ki worked out at 2780 nM in experiment [1] and 5710 nM in experiment [6].

In experiment [6], `Cc1ccc2c(c1)c1c(n2CCc2ccc(C)nc2)CCN(C)C1` [LATREPIRDINE] showed a Ki of 5570 nM.

With `CN1CCCC(n2nc(Cc3ccc(Cl)cc3)c3ccccc3c2=O)CC1` (configuration not stated) [AZELASTINE HYDROCHLORIDE], the inhibition constant Ki in experiment [5] is above 10000 nM; on D(1A) dopamine receptor, 577 nM; in experiment [1], above 10000 nM; in experiment [6] it was 5370 nM.

Take `COc1ccc(NS(=O)(=O)c2sc3ccc(Cl)cc3c2C)cc1N1CCNCC1`: the results for the Ki in experiment [1] and in experiment [2] were 2100 nM and 988 nM, respectively.

As for `CN1CCC(=C2c3ccccc3CC(=O)c3sccc32)CC1` [KETOTIFEN FUMARATE], the Ki in experiment [4] is 98.5 nM; in experiment [3] it was 917 nM; on D(1A) dopamine receptor, 299 nM; in experiment [2] it was 339 nM.

`COc1cccc([C@@H](C)NCCCc2ccccc2Cl)c1` [TECALCET HYDROCHLORIDE] yielded a Ki in experiment [1] above 10000 nM.

In turn, `CCCCN1CCC(COC(=O)c2cc(Cl)c(N)c3c2OCCO3)CC1` came in with a Ki in experiment [2] of 1310 nM. That is a single-digit micromolar value.

For `CN1C[C@H](C(=O)N[C@]2(C)O[C@@]3(O)[C@@H]4CCCN4C(=O)[C@H](Cc4ccccc4)N3C2=O)C[C@@H]2c3cccc4[nH]cc(c34)C[C@H]21` [DIHYDROERGOTAMINE MESYLATE], the Ki in experiment [6] was 682 nM.

`OCc1cc(C(O)CNCCCCCCOCCCCc2ccccc2)ccc1O` (configuration not stated) [SALMETEROL] had a Ki in experiment [4] of 971 nM.

Turning to `S=C(NCCCc1c[nH]cn1)NCCCN(Cc1ccc(Cl)c(Cl)c1)c1ccc(Br)cn1`, the inhibition constant Ki in experiment [4] was found to be 491 nM; at D(1A) dopamine receptor, 1720 nM; on Histamine H3 receptor it was 104 nM.

For the molecule `COc1cc(-n2cnc3cc(-c4ccc(Cl)cc4)sc3c2=O)ccc1OCCN1CCCC1`, the Ki in experiment [4] was 2640 nM; in experiment [3] it was 1700 nM; in experiment [5] it was 4130 nM.

In the case of `Cc1nc(-c2ccc(-c3ccc(C(=O)N4CCc5cc6c(cc54)C4(CCN(C)CC4)CO6)cc3)c(C)c2)no1` [SB-224289], the Ki in experiment [4] was determined as 344 nM; in experiment [5] it was 926 nM; on D(1A) dopamine receptor it was 369 nM.

For `CN1CCN(c2ccc(Nc3c4ccccc4nc4ccccc34)cc2)CC1`, the Ki amounted to 4540 nM at D(1A) dopamine receptor and 82.4 nM at Histamine H3 receptor.

Turning to `CN1C2CCC1CC(OC(c1ccc(F)cc1)c1ccc(F)cc1)C2` (configuration not stated), the Ki in experiment [5] was 5.82 nM; in experiment [2] it was 2070 nM.

Turning to `COc1ccc(NC(=O)c2ccc(-c3ccc(-c4noc(C)n4)cc3C)cc2)cc1OCCN(C)C`, the results for the Ki (at Histamine H3 receptor; in experiment [6]) were 709 nM and 981 nM, respectively.

As for `CCOC(=O)c1c(C)[nH]c2ccc3c(c12)CN1CCc2cc(OC)ccc2C1O3` (configuration not stated), the Ki in experiment [3] is 46.9 nM; in experiment [5], 173 nM; in experiment [2] it was 1660 nM.
